The source made the active and inactive calls.
How the values were obtained:
[1] = reduced cellular PGC1a acetyl-lysine signal – cell-based, cherry-picked samples, dose response (AID 720514); format: functional;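 note: potency may reflect raised or lowered acetylation signal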
Troponin, cardiac muscle = Troponin, cardiac muscle (Homo sapiens, UniProt P19429+P45379+P63316); assay: Fluorescence-based biochemical high throughput dose response assay for activators of the calcium sensitivity of cardiac Regulated Thin Filaments (RTF). [Related pubchem assays (depositor defined):AID493008, AID493018, AID504382, AID504383]; format: protein-complex assay
Vero = assay: cells; format: functional; settings: Chlorocebus sabaeus
[2] = activation of miR-122 Renilla sensor silencing – cell-based, Huh7 psiCHECK-miR122, Renilla luciferase, cherry-picked, dose response (AID 651956); format: functional;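 note: huh7 hepatoma cells stably carrying a psiCHECK-2 miR-122 sensor plasmid; renilla luciferase signal reporting endogenous miR-122 activity after 48 h compound exposure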
Paired box protein Pax-8 = Paired box protein Pax-8 (Homo sapiens, UniProt Q06710); assay: PAX8 transcriptional activity inhibition in RMG-I – RMG-I cells, luciferase, cherry-pick, dose response (AID 687027); format: functional, cell-based;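 note: luciferase reporter driven by Pax8 target thyroperoxidase promoter measured by SteadyGlo luminescence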
[3] = general mammalian cell viability loss – inhibitor set, cherry-pick, set 2, cytotoxicity control for miR-122 modulator project, dose response (AID 720697); format: functional, cell-based
[4] = general mammalian cell viability loss – activator set, cherry-pick, cytotoxicity control for miR-122 modulator project, dose response (AID 720690); format: functional, cell-based;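 note: HEK293T human cells scored for general mammalian cytotoxicity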
[5] = general cell-killing toxicity readout – plate reader, dry powder samples, cytotoxicity control for PAX8 inhibitor project, dose response (AID 743021); format: functional, cell-based
[6] = target: Nuclear receptor subfamily 5 group A member 2 (Homo sapiens, UniProt O00482); format: functional, cell-based;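 note: HEK293T cells transfected with LRH-1 and a StAR promoter luciferase reporter; potency for inhibitors that lower LRH-1 driven reporter light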
Steroidogenic factor 1 = Steroidogenic factor 1 (Homo sapiens, UniProt Q13285); assay: Counterscreen for inverse agonists of the liver receptor homolog-1 (LRH-1; NR5A2): Luminescence-based cell-based high throughput dose response assay to identify inverse agonists of the Steroidogenic Factor 1 Nuclear Receptor (SF1; NR5A1).; format: functional
[7] = nonselective StAR promoter luciferase inhibitors – cell-based, luminescence, luciferase reporter, counter-screen for LRH-1 inverse agonist project, dose response (AID 651969); format: functional
HEK293 [8] = assay: inhibition of NOD1-driven NF-kB reporter – cell-based, luminescence, uHTS, primary screen (AID 1578); format: functional; settings: Homo sapiens
[9] = target: T1, Luciferin 4-monooxygenase (Photinus pyralis, UniProt P08659); assay: Counter Screen for Luciferase-based Assay Positives. [Related pubchem assays: 620, 618, 411 ]
HEK293 [10] = assay: cells; format: functional, cell-based; settings: Homo sapiens
HEK293 [11] = assay: cells; format: functional, cell-based; settings: Homo sapiens; remark: listed apart in the source
[12] = target: Nucleotide-binding oligomerization domain-containing protein 2 (Homo sapiens, UniProt Q9HC29); assay: inhibition of NOD2-driven NF-kB reporter – cell-based, luminescence, uHTS, HEK293 (AID 1566); format: functional
HEK293 [13] = assay: NOD2 signaling inhibitors in MDP-stimulated cells, cell-based, uHTS, luminescence (AID 2001); format: functional; settings: Homo sapiens
HEK293 [14] = assay: cells; format: functional, cell-based; settings: Homo sapiens; remark: listed apart in the source
HT-1080 = assay: HT1080 cell viability loss – fluorescence readout (AID 620); format: functional, cell-based; settings: Homo sapiens
[15] = Luminescence Cell-Based Dose Retest to Confirm Inhibitors of Cancer Stem Cells. [Related pubchem assays (depositor defined):AID2717, AID2721]; format: functional; settings: Homo sapiens
[16] = target: COUP transcription factor 2 (Homo sapiens, UniProt P24468); assay: Luminescence-based cell-based high throughput dose response assay to identify inhibitors of COUP-TFII (NR2F2).; format: functional;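 note: HEK293 cells transiently cotransfected with COUP-TFII expression vector and reporter; luciferase reporter luminescence driven by COUP-TFII from the pX2-168 reporter plasmid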
[17] = Trypanosoma cruzi growth suppression in host cells – NIH3T3 host cells, beta-gal luminescence, confirmation (AID 2044); format: functional, cell-based;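 note: intracellular parasites grown in NIH/3T3 mouse fibroblasts as host cells; luminescent beta-galactosidase reporter signal from transgenic T. cruzi replicating inside host cells; inhibitors lower the luminescence signal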
[18] = NIH3T3 cell viability loss – ATP luminescence, mouse fibroblasts, counter-screen, dose response (AID 2010); format: functional, cell-based;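 note: cells exposed to compound for about 90 hours before reading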
cells [19] = settings: A549
cells [20] = settings: HEK293
[21] = target: T2, Polyadenylate-binding protein 1 (Homo sapiens, UniProt P11940); assay: MLLE binding blockers, Cy5 peptide tracer – biochemical, fluorescence polarization, Cy5-PAM2 peptide, secondary, miRNA deadenylation inhibitor project, dose response (AID 602260); format: functional; settings: read-out: IC50_Mean
[22] = target: T2, Polyadenylate-binding protein 1; assay: MLLE domain peptide-binding blockers, IC50 – biochemical, fluorescence polarization, FITC-PAM2 peptide, dose response (AID 602259); format: functional; settings: read-out: IC50_Mean
Major prion protein = Major prion protein (Homo sapiens, UniProt P04156); format: functional, cell-based
cells [23] = assay: cells
[24] = target: T3, Small ubiquitin-related modifier 2 (Homo sapiens, UniProt P61956); assay: disruption of SUMO2 interaction with SIM peptide – biochemical, fluorescence polarization, uHTS hits, selectivity assay for SUMO1 interaction inhibitor project, dose response (AID 624385); format: functional; settings: read-out: IC50_Mean
[25] = target: T4, Small ubiquitin-related modifier 1 (Homo sapiens, UniProt P63165); assay: SUMO1 protein interaction blockers, potency – biochemical, fluorescence polarization, uHTS hits, dose response (AID 624382); format: functional; settings: read-out: IC50_Mean
[26] = target: T3, Small ubiquitin-related modifier 2; assay: SUMO2 binding disruption by SUMO1 hits – biochemical, FRET, human SUMO2, uHTS hits, selectivity assay for SUMO1 interaction inhibitor project, dose response (AID 624384); format: functional; settings: read-out: IC50_Mean
[27] = target: T4, Small ubiquitin-related modifier 1; assay: SUMO1 protein-protein binding blockers, potency – biochemical, FRET, dose response (AID 624383); format: functional; settings: read-out: IC50_Mean
[28] = luciferase reporter signal suppression in cells – H4 neuroglioma cells, luminescence, dose response (AID 1990); format: functional, cell-based
[29] = luciferase reporter signal reduction – luminescence, H4-C neuroglioblastoma cells, dose response (AID 2458); format: functional, cell-based;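 note: H4 neuroglioblastoma cells stably carrying a luciferase reporter gene fusion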
cells [30] = format: functional, cell-based
[31] = Luminescence Cell-Based Dose Response HTS to Identify Inhibitors of 5'UTR Stem-Loop Driven Prion Protein mRNA Translation in H4 Neuroglioblastoma Cells. [Related pubchem assays: 1827 (Project Summary), 1813 (Primary HTS)]; format: functional
[32] = target: T5, Heat shock factor protein 1 (Mus musculus, UniProt P38532); assay: decrease of HSF1-responsive luciferase luminescence – cell-based, NIH3T3, dose retest, confirmation (AID 2382); format: functional;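 note: NIH3T3 fibroblasts with HSF1-driven luciferase reporter stressed by proteasome inhibitor MG132; luminescence from HSF1-driven luciferase expression after 8 hours of MG132 stress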
T5 sequence (P38532 whole entry): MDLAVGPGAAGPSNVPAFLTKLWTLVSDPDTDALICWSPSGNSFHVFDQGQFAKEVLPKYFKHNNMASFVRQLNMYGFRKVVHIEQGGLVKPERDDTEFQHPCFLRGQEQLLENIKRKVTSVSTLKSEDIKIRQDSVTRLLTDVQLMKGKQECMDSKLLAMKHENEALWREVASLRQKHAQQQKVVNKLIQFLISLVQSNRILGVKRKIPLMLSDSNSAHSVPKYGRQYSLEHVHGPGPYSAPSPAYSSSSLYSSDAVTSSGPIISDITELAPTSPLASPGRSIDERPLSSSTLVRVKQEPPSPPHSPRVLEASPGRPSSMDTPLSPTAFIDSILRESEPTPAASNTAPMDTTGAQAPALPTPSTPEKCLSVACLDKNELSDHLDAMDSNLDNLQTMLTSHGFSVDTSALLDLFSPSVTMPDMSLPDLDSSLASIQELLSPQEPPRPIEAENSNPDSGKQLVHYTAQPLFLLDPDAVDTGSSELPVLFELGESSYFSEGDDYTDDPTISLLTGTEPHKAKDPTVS

[33] = alpha-synuclein stem-loop luciferase translation blockers – H4 neuroglioma cells, luminescence, confirmation (AID 1988); format: functional, cell-based
[34] = target: T1, Luciferin 4-monooxygenase; assay: inhibition of purified Photinus pyralis luciferase – biochemical, luminescence, dose response (AID 1891)
[35] = Luminescence Cell-Based Dose Confirmation HTS to Identify Inhibitors of Platelet Dense Granule Release. [Related pubchem assays: 1663 (Primary HTS), 1678 (Summary of Project)]; format: functional
[36] = Luminescence-based counterscreen assay for KLF5 inhibitors: dose response cell-based high throughput screening assay to identify cytotoxic compounds using the IEC-6 intestinal epithelial cell line. [Related pubchem assays: 1700 (Primary screen.), 1834 (Confirmation screen.), 1858 (Summary AID.), 1905 (Counterscreen.)]; format: functional
[37] = alpha-synuclein stem-loop translation blockers – luminescence, H4 neuroglioblastoma cells, dose confirmation, confirmation (AID 2454); format: functional, cell-based;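 note: H4 neuroglioblastoma cells carrying an alpha-synuclein 5'UTR luciferase reporter; potency for inhibition of the luciferase signal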
[38] = A549 cell cytotoxicity, dose response, cytotoxicity control, plate reader, cherry-pick, antagonist series (AID 743412); format: functional, cell-based
[39] = toxicity toward HepG2 liver cells – cell-based, plate reader, cherry-pick, antagonist series, cytotoxicity control, dose response (AID 743416); format: functional
[40] = blockers of bursicon-stimulated LGR2 cAMP reporter – cell-based, HEK293, CRE-luciferase reporter, cherry pick, set 2, dose response (AID 743343); format: functional;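 note: transfected cells were stimulated with diluted bursicon conditioned medium after compound addition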
[41] = blockade of melanocortin 4 receptor signaling – cell-based, plate reader, cherry pick, counter-screen for LGR2 antagonist project, dose response (AID 743444); format: functional;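 note: transfected HEK 293 cells stimulated with alpha-MSH peptide; potency of inhibitors of the alpha-MSH evoked signal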
[42] = viability loss in HEK293 cells – cell-based, plate reader, cherry-picked samples, cytotoxicity control, dose response (AID 743446); format: functional

SMILES: CC(=O)c1ccc(Nc2cc(C)nc3ccc(C)cc23)cc1
- AC50 [1]: 6.09 µM (active)

SMILES: Cn1ncc2c(ON=C(N)c3ccc(C(F)(F)F)cc3)ncnc21
- EC50 (Troponin, cardiac muscle): > 71.5 µM (inactive)
- CC50 (Vero): 8.98 µM (active)
- AC50 [2]: 20.8 µM (active)
- AC50 (Paired box protein Pax-8): 6.71 µM (active)
- AC50 [1]: 4.71 µM (active)
- AC50 [3]: 9.49 µM (active)
- AC50 [4]: 14 µM (active)
- AC50 [5]: 66.7 µM (active)

SMILES: Cc1cc(OCC(=O)Nc2nccs2)c2c(C)cc(=O)oc2c1
- IC50 [6]: 0.168 µM (active)
- IC50 (Steroidogenic factor 1): 0.112 µM (active)
- IC50 [7]: 35.9 µM (inactive)

SMILES: CC(=O)Nc1ccc(SCC(=O)c2cc(C)n(Cc3cccs3)c2C)cc1
- EC50 (HEK293 [8]): > 20 µM (inactive)
- EC50 [9]: 3.59 µM (active)
- IC50 (HEK293 [10]): > 20 µM (inactive)
- IC50 (HEK293 [11]): > 20 µM (inactive)
- EC50 [12]: > 20 µM (inactive)
- IC50 (HEK293 [13]): > 20 µM (inactive)
- IC50 (HEK293 [14]): > 20 µM (inactive)
- EC50 (HT-1080): > 50 µM (not active)
- AC50 [15]: 1.77 µM (active)
- IC50 [16]: 23.6 µM (inactive)

SMILES: Cc1ccc2nc3c(cc(C(N)=S)c(=N)n3CCCOC(C)C)c(=O)n2c1
- EC50 [17]: 4.43 µM (active)
- EC50 [18]: 9.45 µM (active)
- AC50 (cells [19]): 33.9 µM (active)
- AC50 (cells [20]): > 52 µM (inactive)

SMILES: O=C(CSc1nc(Cc2ccccc2)nc2ccccc12)Nc1ccc2c(c1)OCCO2
- IC50 [21]: > 66 µM (inactive)
- IC50 [22]: > 66 µM (inactive)
- IC50 (Major prion protein): 5.39 µM (active)
- IC50 (cells [23]): 45.6 µM (inactive)

SMILES: COc1ccc(C=NNc2ccc(S(=O)(=O)Nc3ccccc3C(=O)O)cc2[N+](=O)[O-])c(OC)c1
- IC50 [24]: 3.82 µM (active)
- IC50 [25]: 5.26 µM (active)
- IC50 [26]: 6.34 µM (active)
- IC50 [27]: 50.9 µM (inactive)

SMILES: COc1cc2c(cc1OC)CN(C(=O)CN1C(=O)NC3(CCC(C)CC3)C1=O)CC2 (configuration not stated)
- IC50 [6]: 13.4 µM (inactive)
- IC50 (Steroidogenic factor 1): 11.3 µM (inactive)
- IC50 [7]: 35.9 µM (inactive)

SMILES: CCCS(=O)(=O)c1cnc(C2COc3ccccc3O2)nc1N (configuration not stated)
- EC50 [28]: 0.197 µM (active)
- EC50 [29]: 0.862 µM (active)
- EC50 (cells [30]): > 12 µM (inconclusive)
- EC50 [31]: 0.132 µM (active)
- EC50 [32]: < 0.16 µM (active)
- EC50 [33]: < 0.1 µM (active)
- EC50 [34]: 14.4 µM (active)
- EC50 [35]: 3.05 µM (active)
- IC50 [36]: > 39.8 µM (not active)
- EC50 [37]: 1.06 µM (active)
- AC50 [38]: 34.2 µM (active)
- AC50 [39]: 40.1 µM (active)
- AC50 [40]: 1.45 µM (active)
- AC50 [41]: 1.2 µM (active)
- AC50 [42]: 26.6 µM (active)
